Data from article PMC8896928, “Preparation, Characterization, and Preliminary Imaging Study of [^188Re]Re-Ibandronate as a Novel Theranostic Radiopharmaceutical for Bone Metastasis” (Contrast Media & Molecular Imaging, 2022).
Where two headings read alike, the source gives them in different places.

Columns and labels:
[1] = Bone imaging of New Zealand rabbits (SPECT); conditions: New Zealand rabbit, 100 MBq
Protocol: The New Zealand rabbit was anesthetized by intraperitoneal injection of 2% pentobarbital sodium (40 mg/kg). Then, 100 MBq [^188Re]Re-IBA was injected. Bone imaging was performed at different time points (acquisition equipment: American GE Infinia T4 double probe single-photon emission computed tomography, high energy collimator; scanning parameters: energy peak: 155 keV, posture: supine position, matrix: 128 × 128, and window width: ±10%). Following image acquisition, the images were processed by using the software of the postprocessing workstation.

[2] = test system: nude mice of bone metastasis model (PC-3, MDA-MB-231, left tibia); conditions: for ROI ratio of model bone/contralateral bone (mean): bone imaging
Protocol: (§1) The nude mice of the bone metastasis model were established by tibial bone marrow injection. The specific methods were as follows: 25 μL of prostate cancer PC-3 and breast cancer MDA-MB-231 cell culture medium were injected into the left tibial bone marrow cavity of healthy male and female nude mice, respectively. At approximately 3-4 weeks after inoculation, they were scanned by microcomputed tomography (CT, SIEMENS InveonTM, Munich, Germany) to determine the condition of the model. […] Bone metastases were initially evaluated by CT and confirmed by pathology after the completion of related studies.
The nude mice were injected with [^18F]F-sodium fluoride (NaF), [^99mTc]Tc-methylene diphosphonate (MDP), and [^188Re]Re-IBA at the first, second, and fifth days, respectively, for bone imaging. […]/computed tomography (PET/CT) acquisition equipment was SIEMENS InveonTM. Single-photon emission computed tomography/computed tomography (SPECT/CT) acquisition equipment was GE SPECT, pinhole collimator.

[3] = test system: nude mice of bone metastasis model (PC-3, MDA-MB-231, left tibia)
Protocol: as §1
Ten PC-3 and ten MDA-MB-231 nude mice with bone metastasis were randomly divided into five groups. The mice were sacrificed by CO2 asphyxiation at 1 h, 3 h, 6 h, 24 h, and 48 h. The important tissue and organ samples were collected for the biodistribution study.

CCCCCN(C)CCC1(O)P(=O)(O)[O][188Re]2([OH])([OH])([O]P1(=O)O)[O]P(=O)(O)C(O)(CCN(C)CCCCC)P(=O)(O)[O]2 (stereo not drawn) [[^188Re]Re-IBA]
Elimination route of most of the activity [1]: through the kidneys | Bone imaging, tracer distribution ([1]; 20 min after the injection): obvious accumulation in bones and mild tracer uptake in soft tissue | Bone imaging, uptake in the model side vs control side ([2]; 1–3 h after injection, concentration mainly in surrounding soft tissue): higher than that of the control side | ROI ratio of model bone/contralateral bone (mean) ([2]; 6 h): 1.245 | ROI ratio of model bone/contralateral bone (mean) ([2]; 16 h): 1.633 | ROI ratio of model bone/contralateral bone (mean) ([2]; 32 h): 1.529 | %ID/g Blood ([3]; 1 h): 1.704 ± 0.348 %ID/g | %ID/g Brain ([3]; 1 h): 0.098 ± 0.046 %ID/g | %ID/g CB (contralateral bone) ([3]; 1 h): 9.331 ± 0.541 %ID/g | %ID/g CS (contralateral muscle) ([3]; 1 h): 0.578 ± 0.043 %ID/g | %ID/g Gonad ([3]; 1 h): 0.439 ± 0.162 %ID/g | %ID/g Heart ([3]; 1 h): 0.595 ± 0.099 %ID/g | %ID/g Kidney ([3]; 1 h): 6.004 ± 0.523 %ID/g | %ID/g Liver ([3]; 1 h): 1.236 ± 0.219 %ID/g | %ID/g Lung ([3]; 1 h): 1.135 ± 0.209 %ID/g | %ID/g MB (model bone) ([3]; 1 h): 8.329 ± 0.329 %ID/g | %ID/g Small intestine ([3]; 1 h): 0.718 ± 0.073 %ID/g | %ID/g Spleen ([3]; 1 h): 0.530 ± 0.124 %ID/g | %ID/g Stomach ([3]; 1 h): 3.056 ± 0.321 %ID/g | %ID/g Thyroid gland ([3]; 1 h): 0.625 ± 0.309 %ID/g | CB/CS ratio ([3]; 1 h): 16.144 | CB/heart ratio ([3]; 1 h): 15.682 | CB/liver ratio ([3]; 1 h): 7.549 | MB/CB ratio ([3]; 1 h): 0.893 | MB/CS ratio ([3]; 1 h): 14.411 | MB/heart ratio ([3]; 1 h): 14.003 | MB/liver ratio ([3]; 1 h): 6.738 | %ID/g Blood ([3]; 3 h): 0.531 ± 0.092 %ID/g | %ID/g Brain ([3]; 3 h): 0.082 ± 0.017 %ID/g | %ID/g CB (contralateral bone) ([3]; 3 h): 7.717 ± 4.349 %ID/g | %ID/g CS (contralateral muscle) ([3]; 3 h): 0.524 ± 0.172 %ID/g | %ID/g Gonad ([3]; 3 h): 0.231 ± 0.068 %ID/g | %ID/g Heart ([3]; 3 h): 0.326 ± 0.175 %ID/g | %ID/g Kidney ([3]; 3 h): 2.591 ± 1.120 %ID/g | %ID/g Liver ([3]; 3 h): 0.431 ± 0.312 %ID/g | %ID/g Lung ([3]; 3 h): 0.298 ± 0.250 %ID/g | %ID/g MB (model bone) ([3]; 3 h): 5.922 ± 2.126 %ID/g | %ID/g Small intestine ([3]; 3 h): 0.404 ± 0.047 %ID/g | %ID/g Spleen ([3]; 3 h): 0.227 ± 0.141 %ID/g | %ID/g Stomach ([3]; 3 h): 2.064 ± 0.207 %ID/g | %ID/g Thyroid gland ([3]; 3 h): 0.282 ± 0.149 %ID/g | CB/CS ratio ([3]; 3 h): 14.731 | CB/heart ratio ([3]; 3 h): 23.637 | CB/liver ratio ([3]; 3 h): 17.896 | MB/CB ratio ([3]; 3 h): 0.767 | MB/CS ratio ([3]; 3 h): 11.305 | MB/heart ratio ([3]; 3 h): 18.139 | MB/liver ratio ([3]; 3 h): 13.734 | %ID/g Blood ([3]; 6 h): 0.302 ± 0.092 %ID/g | %ID/g Brain ([3]; 6 h): 0.042 ± 0.042 %ID/g | %ID/g CB (contralateral bone) ([3]; 6 h): 7.662 ± 2.934 %ID/g | %ID/g CS (contralateral muscle) ([3]; 6 h): 0.153 ± 0.083 %ID/g | %ID/g Gonad ([3]; 6 h): 0.106 ± 0.022 %ID/g | %ID/g Heart ([3]; 6 h): 0.183 ± 0.097 %ID/g | %ID/g Kidney ([3]; 6 h): 2.587 ± 0.126 %ID/g | %ID/g Liver ([3]; 6 h): 0.368 ± 0.054 %ID/g | %ID/g Lung ([3]; 6 h): 0.257 ± 0.030 %ID/g | %ID/g MB (model bone) ([3]; 6 h): 8.417 ± 1.820 %ID/g | %ID/g Small intestine ([3]; 6 h): 0.242 ± 0.118 %ID/g | %ID/g Spleen ([3]; 6 h): 0.176 ± 0.029 %ID/g | %ID/g Stomach ([3]; 6 h): 1.176 ± 0.190 %ID/g | %ID/g Thyroid gland ([3]; 6 h): 0.354 ± 0.217 %ID/g | CB/CS ratio ([3]; 6 h): 50.044 | CB/heart ratio ([3]; 6 h): 41.876 | CB/liver ratio ([3]; 6 h): 20.818 | MB/CB ratio ([3]; 6 h): 1.099 | MB/CS ratio ([3]; 6 h): 54.970 | MB/heart ratio ([3]; 6 h): 45.999 | MB/liver ratio ([3]; 6 h): 22.867 | %ID/g Blood ([3]; 24 h): 0.045 ± 0.020 %ID/g | %ID/g Brain ([3]; 24 h): 0.037 ± 0.020 %ID/g | %ID/g CB (contralateral bone) ([3]; 24 h): 4.413 ± 2.225 %ID/g | %ID/g CS (contralateral muscle) ([3]; 24 h): 0.081 ± 0.050 %ID/g | %ID/g Gonad ([3]; 24 h): 0.069 ± 0.018 %ID/g | %ID/g Heart ([3]; 24 h): 0.052 ± 0.027 %ID/g | %ID/g Kidney ([3]; 24 h): 0.640 ± 0.175 %ID/g | %ID/g Liver ([3]; 24 h): 0.089 ± 0.027 %ID/g | %ID/g Lung ([3]; 24 h): 0.101 ± 0.038 %ID/g | %ID/g MB (model bone) ([3]; 24 h): 6.403 ± 0.247 %ID/g | %ID/g Small intestine ([3]; 24 h): 0.049 ± 0.003 %ID/g | %ID/g Spleen ([3]; 24 h): 0.066 ± 0.024 %ID/g | %ID/g Stomach ([3]; 24 h): 0.192 ± 0.092 %ID/g | %ID/g Thyroid gland ([3]; 24 h): 0.082 ± 0.030 %ID/g | CB/CS ratio ([3]; 24 h): 54.620 | CB/heart ratio ([3]; 24 h): 85.157 | CB/liver ratio ([3]; 24 h): 49.848 | MB/CB ratio ([3]; 24 h): 1.451 | MB/CS ratio ([3]; 24 h): 79.255 | MB/heart ratio ([3]; 24 h): 123.563 | MB/liver ratio ([3]; 24 h): 72.330 | %ID/g Blood ([3]; 48 h): 0.021 ± 0.008 %ID/g | %ID/g Brain ([3]; 48 h): 0.021 ± 0.009 %ID/g | %ID/g CB (contralateral bone) ([3]; 48 h): 4.737 ± 0.863 %ID/g | %ID/g CS (contralateral muscle) ([3]; 48 h): 0.041 ± 0.022 %ID/g | %ID/g Gonad ([3]; 48 h): 0.028 ± 0.001 %ID/g | %ID/g Heart ([3]; 48 h): 0.035 ± 0.013 %ID/g | %ID/g Kidney ([3]; 48 h): 0.121 ± 0.034 %ID/g | %ID/g Liver ([3]; 48 h): 0.044 ± 0.013 %ID/g | %ID/g Lung ([3]; 48 h): 0.047 ± 0.005 %ID/g | %ID/g MB (model bone) ([3]; 48 h): 6.503 ± 0.010 %ID/g | %ID/g Small intestine ([3]; 48 h): 0.030 ± 0.018 %ID/g | %ID/g Spleen ([3]; 48 h): 0.022 ± 0.013 %ID/g | %ID/g Stomach ([3]; 48 h): 0.027 ± 0.019 %ID/g | %ID/g Thyroid gland ([3]; 48 h): 0.020 ± 0.010 %ID/g | CB/CS ratio ([3]; 48 h): 115.161 | CB/heart ratio ([3]; 48 h): 133.599 | CB/liver ratio ([3]; 48 h): 106.617 | MB/CB ratio ([3]; 48 h): 1.373 | MB/CS ratio ([3]; 48 h): 158.088 | MB/heart ratio ([3]; 48 h): 183.399 | MB/liver ratio ([3]; 48 h): 146.359
